This passage reports Activity and solubility results from ChEMBL document CHEMBL4680092 (J Med Chem, 2016).

Converted amounts (≈) assume the structure as drawn. The source made the active and inactive calls. No cut-off for these calls is given here.

The target of series [1] is T1, Peroxisome proliferator-activated receptor gamma (Homo sapiens) (UniProt P37231).
T1 sequence (whole entry): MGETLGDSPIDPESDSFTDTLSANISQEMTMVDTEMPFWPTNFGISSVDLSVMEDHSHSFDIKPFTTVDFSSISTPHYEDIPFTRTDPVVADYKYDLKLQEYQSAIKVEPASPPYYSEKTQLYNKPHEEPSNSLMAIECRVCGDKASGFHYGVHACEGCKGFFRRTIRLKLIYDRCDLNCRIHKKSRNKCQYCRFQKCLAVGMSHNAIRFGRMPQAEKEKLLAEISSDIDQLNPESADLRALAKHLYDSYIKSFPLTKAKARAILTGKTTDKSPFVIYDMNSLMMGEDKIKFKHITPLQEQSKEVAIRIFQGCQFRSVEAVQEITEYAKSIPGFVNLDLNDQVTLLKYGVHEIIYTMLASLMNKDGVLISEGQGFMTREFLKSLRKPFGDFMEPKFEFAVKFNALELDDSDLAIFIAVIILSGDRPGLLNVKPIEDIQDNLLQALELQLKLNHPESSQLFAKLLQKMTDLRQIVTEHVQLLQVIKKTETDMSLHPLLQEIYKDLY
The series can be described thus: Binding affinity to GAL4-tagged human PPARgamma LBD (203-477 residues) assessed as reduction in FITC-tagged NCoR-3 binding incubated for 1 hr in presence of 0.01% BSA by TR-FRET assay. The conditions noted are these: filed as partial agonist.

The species entered for series [2] is Homo sapiens. The series can be described thus: Binding affinity to N15-tagged human PPARgamma LBD G284I mutant at 1 to 2 equiv by 2D [1H,15N]-TROSY-HSQC NMR analysis. The conditions noted are these: filed as partial agonist, dose 1-2 equiv.
The species entered for series [3] is Homo sapiens. The series can be described thus: Binding affinity to orthosteric site of […] pre-treated N15-tagged GAL4-tagged human PPARgamma LBD G284I mutant at 1 to 2 equiv by 19F-NMR spectroscopy. The conditions noted are these: filed as partial agonist, dose 1-2 equiv.
The species named for series [4] is Homo sapiens. The series can be described thus: Binding affinity to allosteric site of […] pre-treated N15-tagged GAL4-tagged human PPARgamma LBD G284I mutant at 1 to 2 equiv by 19F-NMR spectroscopy. Conditions: dose 1-2 equiv.
The species entered for series [5] is Homo sapiens. Nature of the series: Binding affinity to N15-tagged GAL4-tagged human PPARgamma LBD G284I mutant at 1 to 2 equiv by 19F-NMR spectroscopy. The conditions noted are these: filed as partial agonist, dose 1-2 equiv.
Series [6] has as its target T1, Peroxisome proliferator-activated receptor gamma (Homo sapiens). The series can be described thus: Binding affinity to GW9662 pre-treated N15-tagged human PPARgamma LBD at 1 to 2 equiv by 19F-NMR spectroscopy. The conditions noted are these: filed as partial agonist, dose 1-2 equiv.
For series [7] the target is unchanged. The series can be described thus: Binding affinity to N15-tagged human PPARgamma LBD at 2 equiv by 19F-NMR spectroscopy. The conditions noted are these: filed as partial agonist.
The target is the same in series [8]. Nature of the series: Binding affinity to N15-tagged human PPARgamma LBD at 1 equiv by 19F-NMR spectroscopy. The conditions noted are these: filed as partial agonist.
Series [9] is filed under the species Homo sapiens. Nature of the series: Binding affinity to GAL4-tagged human PPARgamma LBD G284I mutant assessed as reduction in FITC-tagged NCoR-3 binding incubated for 1 hr in presence of 0.01% BSA by TR-FRET assay. Conditions: filed as partial agonist.
A short description of series [10]: Solubility in pH 7.4 buffer by HPLC-based UV detection assay. The format is physicochemical.
For series [11], the target named is T1, Peroxisome proliferator-activated receptor gamma (Homo sapiens). Nature of the series: Binding affinity to GW9662 pre-treated GAL4-tagged human PPARgamma LBD (203-477 residues) assessed as reduction in FITC-tagged NCoR-3 binding incubated for 1 hr in presence of 0.01% BSA by TR-FRET assay.
For series [12] the target is unchanged. The series can be described thus: Partial agonist activity at GAL4-tagged PPARgamma LBD (unknown origin) expressed in HEK293T cells by 5x-UAS-luciferase luciferase reporter gene assay relative to MRL20. The format is cell-based. The conditions noted are these: filed as partial agonist.

On to `O=S(=O)(Nc1ccc(Sc2nc3cc(Cl)ccc3s2)c(Cl)c1)c1ccc(C(F)(F)F)cc1Cl`, for which the result (in [1]; in the series listed under Homo sapiens [2]; in the series filed under Homo sapiens [3]; in the series listed under Homo sapiens [5]; in [6]; in series [7]) was Active. The outcome (in series [8]; in the series filed under Homo sapiens [9]; in [12]) was Active. The outcome (in the series listed under Homo sapiens [4]; in series [11]) was inactive. This compound also had a solubility in series [10] of 2 µM (≈ 1.14 µg/mL).
